Data on twelve compounds can be found in paper PMC8196714, “Design, Radiosynthesis and Preliminary Biological Evaluation in Mice of a Brain-Penetrant ^18F-Labelled σ2 Receptor Ligand” (International Journal of Molecular Sciences, 2021).

Each structure is given as a SMILES string. Bounds are passed on as bounds.

In data set [1] the target is T1, σ2 receptor (Rattus norvegicus, UniProt Q5U3Y7).
T1 sequence (Q5U3Y7 1-176): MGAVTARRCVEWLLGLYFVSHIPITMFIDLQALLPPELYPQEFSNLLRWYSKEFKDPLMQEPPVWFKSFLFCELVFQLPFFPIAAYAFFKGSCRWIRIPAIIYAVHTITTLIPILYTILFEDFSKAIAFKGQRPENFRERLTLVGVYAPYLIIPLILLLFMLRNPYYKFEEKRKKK
The data set can be described thus: In vitro autoradiography on rat brain cryosections (healthy and orthotopic F98 glioblastoma). Type of data set: binding. Set-up: from tissue; host or cells: rat brain cryosections (SPRD healthy; Fisher F344 with orthotopic F98 glioblastoma). To be noted: autoradiography, co-incubation with competitor at 10^−6 M. An excerpt: Initially, we investigated the binding of [^18F]RM273 on rat brain slices by autoradiography to compare the distribution pattern with that of established σ2 receptor ligands and to examine the target specificity. The highest binding was found in the cortical areas and hippocampal structures. […] Accordingly, we proceeded to investigate, in a rat glioblastoma model, the potential suitability of [^18F]RM273 for molecular characterization of cancer. At first, homologous competition studies using membrane homogenates of the rat glioma cell line F98 were performed to determine the σ2 receptor binding parameters of [^18F]RM273 cells (Figure 3).
We subsequently investigated the binding parameters of [^18F]RM273 by in vitro autoradiography using cryosections of rat brains obtained three weeks after stereotactic implantation of F98 rat glioblastoma cells into the left striatum. Initially, we performed a homologous displacement study to directly compare the binding sites of the new radioligand in a healthy brain and a brain tumor. The inhibition curves presented in Figure 3 indicate binding of [^18F]RM273 to single binding sites in both brain regions. […] Further supporting the assumption of a tumor-specific overexpression of σ2 receptors, a remarkably high density of binding sites of [^18F]RM273 in the F98 tumor tissue was observed (Figure 4). Compared to the healthy tissue (contralateral side), about three times more specific binding sites of [^18F]RM273 were estimated for the tumor region (32 × 10^−9 mol/L vs. 94 × 10^−9 mol/L at 1.5 nM [^18F]RM273).
In vitro autoradiography was performed using cryosections of brains of a healthy rat (SPRD, female, 250 g; Medizinisch-Experimentelles Zentrum, Universität Leipzig, Leipzig, Germany) and brains obtained from rats (Fisher F344/HanZtmRj, male, ≈260 g; Janvier Labs, Le Genest-Saint-Isle, France) 23 days after stereotactic implantation of 5 × 10^4 F98 cells in the […] striatum (n = 2).
Immediately after isolation, the brains were frozen by immersion in isopentane at −25 °C. Cryosections of 12 μm (Microm HM560 cryostat, Thermo Scientific, Schwerte, Germany) were mounted on microscopic glass slides, dried at room temperature, and stored at −25 °C. For the experiment, the slices were dried at room temperature under a stream of cold air before pre-incubation in PBS, pH 7.4, at room temperature for 15 min. […] Co-incubation with serial dilutions of RM273 (10^−10–10^−6 M) was performed to determine an inhibition curve. After 60 min, the incubation at room temperature was terminated by decanting and washing the slides by two consecutive incubations in ice-cold washing buffer (50 mM TRIS-HCl, pH 7.4 at 4 °C) for two min each, followed by dipping in ice-cold demineralized water for 5 sec and drying under a stream of cold air. In parallel, for subsequent quantification of the data obtained from the homologous competition experiment, defined volumes, and thus defined activities of the radioligand solution, were pipetted onto a microscopic glass slide (0.5–3 μL = 0.0355–0.213 kBq) and dried. Afterwards the tissue samples along with the standards were exposed to an ^18F-sensitive phosphor screen (ABC) for two hours. Image acquisition was performed using a phosphorimager (HD-CR 35; DÜRR NDT GmbH & Co. KG, Bietigheim-Bissingen, Germany). Analysis of the digitized images was performed by image analysis software (AIDA; Elysia-raytest GmbH, Straubenhardt, Germany).
Irregular regions of interest (ROI) were drawn on the standard spots and the different brain regions, which were confirmed by Nissl staining of the identical brain sections. Optical density measured in each ROI was expressed as quantum levels per unit area (QL/pixel) with a pixel size of 12.5 μm^2. From the calibration curve obtained from the standards by plotting QL vs. activity, the QL values of the ROIs were converted to activity values followed by conversion to chemical concentration of RM273 based on the molar activity of [^18F]RM273. […]

For a further data set, the target named is human σ1 receptors (Homo sapiens, UniProt Q99720). The data set can be described thus: σ1 receptor affinity, competitive binding with [3H]-(+)-pentazocine (HZDR Leipzig). To be noted: determined at HZDR Leipzig. How it is done: To decide which of the nine compounds would be suitable for subsequent radiofluorination, we determined the affinity towards the σ1 receptor as the most relevant off-target protein.
Chain of human σ1 receptors (Q99720 whole entry): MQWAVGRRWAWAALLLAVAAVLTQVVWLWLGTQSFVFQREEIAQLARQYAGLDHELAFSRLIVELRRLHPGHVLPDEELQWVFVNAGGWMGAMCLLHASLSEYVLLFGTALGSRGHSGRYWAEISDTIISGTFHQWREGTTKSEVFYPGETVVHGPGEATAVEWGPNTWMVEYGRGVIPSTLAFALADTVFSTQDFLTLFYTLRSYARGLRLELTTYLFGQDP
(§1) Binding affinity experiments to assess the Ki values of test compounds towards rat σ2 receptors, human σ1 receptors, and rat VAChT were performed according to protocols previously published by our group. The same protocol was used to determine the KD and Bmax values of RM273 towards σ2 receptors expressed in F98 cells by homologous competition analyzing the displacement of [^18F]RM273 by RM273.

For data set [2], the target named is T1, σ2 receptor. The data set can be described thus: σ2 receptor affinity, inhibition of [3H]DTG binding in rat liver membrane homogenates. More on the design: preparations of membrane homogenates obtained from rat liver; from tissue; host or cells: rat liver. To be noted: for Ki: [3H]DTG, rat liver membrane homogenates. How it is done: Initially, we assessed the affinity of all derivatives towards the target protein and investigated the inhibition of the binding of [^3H]DTG in preparations of membrane homogenates obtained from rat liver, which is known to express high levels of σ2 receptors.
as §1

On the set-up of data set [3]: method as in PMID 17579383. To be noted: 5 min p.i. ref 25; cited from earlier work.
In the next data set the target is guinea pig σ1 receptors (Cavia porcellus, UniProt Q60492). The data set can be described thus: σ1 receptor affinity, competitive binding with [3H]-(+)-pentazocine (WWU). Particulars: determined at WWU. An excerpt: To decide which of the nine compounds would be suitable for subsequent radiofluorination, we determined the affinity towards the σ1 receptor as the most relevant off-target protein. […] To finally select the best derivative for radiofluorination, we calculated the σ2:σ1 selectivity values and identified RM273 (41) as the most suitable one with a ratio of about 400.
Chain of guinea pig σ1 receptors (Q60492 whole entry): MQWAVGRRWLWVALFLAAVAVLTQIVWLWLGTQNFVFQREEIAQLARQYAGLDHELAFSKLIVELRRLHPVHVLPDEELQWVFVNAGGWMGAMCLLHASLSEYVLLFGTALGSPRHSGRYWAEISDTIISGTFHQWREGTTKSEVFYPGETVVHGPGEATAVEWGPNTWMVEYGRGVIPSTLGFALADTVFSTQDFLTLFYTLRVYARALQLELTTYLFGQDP

The target in another data set is T2, rat VAChT (Rattus norvegicus, UniProt Q62666).
T2 construct: expressed in transfected cells; host or cells: PC12 cells
T2 sequence (Q62666 1-530): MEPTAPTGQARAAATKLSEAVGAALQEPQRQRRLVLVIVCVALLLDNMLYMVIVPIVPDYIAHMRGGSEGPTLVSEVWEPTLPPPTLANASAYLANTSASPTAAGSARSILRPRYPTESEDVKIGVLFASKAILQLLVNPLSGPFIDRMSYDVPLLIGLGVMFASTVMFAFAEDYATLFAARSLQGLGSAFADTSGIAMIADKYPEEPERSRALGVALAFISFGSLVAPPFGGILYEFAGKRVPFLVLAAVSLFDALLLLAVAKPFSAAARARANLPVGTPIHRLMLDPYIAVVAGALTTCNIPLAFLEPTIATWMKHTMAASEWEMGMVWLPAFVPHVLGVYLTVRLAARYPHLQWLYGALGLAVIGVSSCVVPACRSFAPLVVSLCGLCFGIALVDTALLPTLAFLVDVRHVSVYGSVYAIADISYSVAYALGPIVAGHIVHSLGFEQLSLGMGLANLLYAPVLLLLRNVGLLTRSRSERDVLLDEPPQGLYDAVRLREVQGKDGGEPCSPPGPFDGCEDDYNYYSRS
The data set can be described thus: Displacement of [3H]vesamicol in membrane homogenates of PC12 cells stably expressing rat VAChT. Type of data set: binding. The method, then: Because ligands targeting σ receptors may be impaired by off-target binding towards the vesicular acetylcholine transporter (VAChT), we determined in the next step the affinity of RM273 towards this protein.
as §1

The mark [4] stands for this setting: Ki σ1 from guinea pig σ1 receptors.

As for `COc1cccc2c1CCCC2CCCN1CCN(C2CCCCC2)CC1` (centres unmarked) [PB28, reference compound], on σ2 receptor [1], the “displacement of [18F]RM273 binding on rat brain slices” value was “completely displaceable”.

For the compound `COc1cc2c(cc1OC)CN(CCCCn1ccc3c(F)cccc31)CC2` [Compound 34, 2-[4-(4-Fluoro-1H-indol-1-yl)butyl]-6,7-dimethoxy-1,2,3,4-tetrahydroisoquinoline], the values for the Ki at human σ1 receptors and at σ2 receptor [2] were 21 nM and 14 nM, respectively. Further, the “Selectivity (Ki σ1/Ki σ2)” value at σ2 receptor [2] (Ki σ1 from human σ1 receptors) was 1.5.

As to `COc1cc2c(cc1OC)CN(CCCCNC(=O)c1cc(C)ccc1OCC[18F])CC2` [[^18F]ISO-I], the brain uptake in data set [3] is 0.76 % ID/g.

On to `Fc1ccc(-n2cc(CCCCN3CCC4(CC3)OCc3ccccc34)c3ccccc32)cc1` [Siramesine, siramesine, reference compound], for which the “displacement of [18F]RM273 binding on rat brain slices” value on σ2 receptor [1] is listed as “completely displaceable”.

Regarding `COc1cc2c(cc1OC)CN(CCCCn1ccc3ccnc(F)c31)CC2` [42 (RM297), 2-[4-(7-Fluor-1H-pyrrolo[2,3-c]pyridin-1-yl)butyl]-6,7-dimethoxy-1,2,3,4-tetrahydroisochinolin], the inhibition constant Ki at guinea pig σ1 receptors is 916 nM; on σ2 receptor [2], 2.7 nM. In addition, the “Selectivity (Ki σ1/Ki σ2)” value on σ2 receptor [2] (setting [4]) is 339.

For the compound `COc1cc2c(cc1OC)CN(CCCCn1ccc3cccc(F)c31)CC2` [Compound 37, 2-(4-(7-Fluoro-1H-indol-1-yl)butyl)-6,7-dimethoxy-1,2,3,4-tetrahydroisoquinoline], the Ki on human σ1 receptors turned out to be 80 nM; on σ2 receptor [2], 10 nM. Moreover, the “Selectivity (Ki σ1/Ki σ2)” value at σ2 receptor [2] (Ki σ1 from human σ1 receptors) is listed as 8.

Regarding `COc1cc2c(cc1OC)CN(CCCCn1ccc3cc(F)ccc31)CC2` [Compound 35, 2-(4-(5-Fluoro-1H-indol-1-yl)butyl)-6,7-dimethoxy-1,2,3,4-tetrahydroisoquinoline], the figures for the Ki on human σ1 receptors and at σ2 receptor [2] were 116 nM and 12 nM, respectively. The “Selectivity (Ki σ1/Ki σ2)” value at σ2 receptor [2] (Ki σ1 from human σ1 receptors) was found to be 9.7.

As to `COc1cc2c(cc1OC)CN(CCCCn1ccc3ccc(F)cc31)CC2` [Compound 36, 2-(4-(6-Fluoro-1H-indol-1-yl)butyl)-6,7-dimethoxy-1,2,3,4-tetrahydroisoquinoline], the Ki on human σ1 receptors amounted to 46 nM; on σ2 receptor [2], 7.1 nM. In addition, at σ2 receptor [2] (Ki σ1 from human σ1 receptors), the “Selectivity (Ki σ1/Ki σ2)” value turned out to be 6.5.

For the compound `COc1cc2c(cc1OC)CN(CCCCn1ccc3nc(F)ccc31)CC2` [Compound 39, 2-[4-(5-Fluor-1H-pyrrolo[3,2-b]pyridin-1-yl)butyl]-6,7-dimethoxy-1,2,3,4-tetrahydroisochinolin], the figures for the Ki at guinea pig σ1 receptors and on σ2 receptor [2] were 122 nM and 3.8 nM, respectively. Besides, at σ2 receptor [2] (setting [4]), the “Selectivity (Ki σ1/Ki σ2)” value came out at 32.

Take `COc1cc2c(cc1OC)CN(CCCCn1ccc3c(F)nccc31)CC2` [Compound 38, 2-[4-(4-Fluor-1H-pyrrolo[3,2-c]pyridin-1-yl)butyl]-6,7-dimethoxy-1,2,3,4-tetrahydroisochinolin]: the Ki was found to be 80 nM on guinea pig σ1 receptors and 5.5 nM on σ2 receptor [2]. In addition, the “Selectivity (Ki σ1/Ki σ2)” value on σ2 receptor [2] (setting [4]) is 14.

As for `COc1cc2c(cc1OC)CN(CCCCn1ccc3ccc(F)nc31)CC2` [41 (RM273), 2-(4-(6-Fluoro-1H-pyrrolo[2,3-b]pyridin-1-yl)butyl)-6,7-dimethoxy-1,2,3,4-tetrahydroisoquinoline], the Ki was 691 nM on guinea pig σ1 receptors, greater than 2000 nM at rat VAChT and 1.6 nM at σ2 receptor [2]. Further, the “Selectivity (Ki σ1/Ki σ2)” value is recorded as 432 at σ2 receptor [2] (setting [4]) and “about 400” on σ2 receptor [2] (Ki σ1 from guinea pig σ1 receptors, listed as RM273 (41)).

Turning to `COc1cc2c(cc1OC)CN(CCCCn1ccc3cc(F)ncc31)CC2` [Compound 40, 2-[4-(5-Fluor-1H-pyrrolo[2,3-c]pyridin-1-yl)butyl]-6,7-dimethoxy-1,2,3,4-tetrahydroisochinolin], the Ki on guinea pig σ1 receptors was determined as 85 nM; at σ2 receptor [2], 1 nM. The “Selectivity (Ki σ1/Ki σ2)” value at σ2 receptor [2] (setting [4]) was 85.
